target: PDE10 (Homo sapiens, UniProt Q9Y233); experiment: PDE10 inhibition, Scintillation Proximity Assay (SPA); format: biochemical; details: substrate at 1/3 Km, IC50 approximates Ki
Procedure: Assay methods are available to screen a substance for inhibition of cyclic nuticleotide hydrolysis by the PDE10 and the PDEs from other gene families. The cyclic nucleotide substrate concentration used in the assay is ⅓ of the Km concentration, allowing for comparisons of IC50 values across the different enzymes. PDE activity is measured using a Scintillation Proximity Assay (SPA)-based method as previously described (Fawcett et al., 2000), The effect of PDE inhibitors is determined by assaying a fixed amount of enzyme (PDEs 1-11) in the presence of varying substance concentrations and low substrate, such that the IC50 approximates the Ki (cGMP or cAMP in a 3:1 ratio unlabelled to [^3H]-labeled at a concentration of ⅓ Km).). The final assay volume is made up to 100 μl with assay buffer [20 mM Tris-HCl pH 7.4, 5 mM MgCl2, 1 mg/ml bovine serum albumin]. Reactions are initiated with enzyme, incubated for 30-60 min at 30° C. to give <30% substrate turnover and terminated with 50 μl yttrium silicate SPA beads (Amersham) (containing 3 mM of the respective unlabelled cyclic nucleotide for PDEs 9 and 11). Plates are re-sealed and shaken for 20 min, after which the beads were allowed to settle for 30 minutes in the dark and then counted on a TopCount plate reader (Packard, Meriden, Conn.).

PDE10, sequence (Q9Y233 whole entry): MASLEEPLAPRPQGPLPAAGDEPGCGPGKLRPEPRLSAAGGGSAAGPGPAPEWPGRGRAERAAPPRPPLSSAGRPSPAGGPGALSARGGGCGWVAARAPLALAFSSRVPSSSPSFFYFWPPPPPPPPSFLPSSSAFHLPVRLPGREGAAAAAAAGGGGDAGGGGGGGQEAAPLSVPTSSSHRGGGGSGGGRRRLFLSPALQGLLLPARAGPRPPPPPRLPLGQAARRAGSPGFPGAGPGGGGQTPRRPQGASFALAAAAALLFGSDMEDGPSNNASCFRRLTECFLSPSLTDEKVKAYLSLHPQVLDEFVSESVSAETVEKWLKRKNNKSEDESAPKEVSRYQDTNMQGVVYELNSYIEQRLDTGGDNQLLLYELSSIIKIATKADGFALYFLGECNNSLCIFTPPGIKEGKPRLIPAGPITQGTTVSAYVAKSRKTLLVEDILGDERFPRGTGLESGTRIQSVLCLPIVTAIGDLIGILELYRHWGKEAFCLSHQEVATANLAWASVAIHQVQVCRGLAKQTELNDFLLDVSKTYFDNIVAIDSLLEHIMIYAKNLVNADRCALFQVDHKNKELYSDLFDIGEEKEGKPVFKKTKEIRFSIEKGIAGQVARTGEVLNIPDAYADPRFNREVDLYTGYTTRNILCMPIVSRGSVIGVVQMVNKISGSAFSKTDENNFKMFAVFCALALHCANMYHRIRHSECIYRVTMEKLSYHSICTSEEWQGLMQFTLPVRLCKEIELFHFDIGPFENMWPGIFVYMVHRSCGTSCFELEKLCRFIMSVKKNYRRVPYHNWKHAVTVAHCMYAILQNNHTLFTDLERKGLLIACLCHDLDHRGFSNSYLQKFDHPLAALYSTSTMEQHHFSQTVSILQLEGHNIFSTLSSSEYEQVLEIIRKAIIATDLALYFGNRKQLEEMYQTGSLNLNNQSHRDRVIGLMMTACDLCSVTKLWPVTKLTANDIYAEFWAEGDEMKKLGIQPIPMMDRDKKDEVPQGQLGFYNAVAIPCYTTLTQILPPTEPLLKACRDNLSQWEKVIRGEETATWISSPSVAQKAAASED

| IC50 [nM] | SMILES |
| --- | --- |
| 79 | Cn1c(COc2ccc(-c3n[nH]cc3-c3ccncc3)cc2)nc2ccccc21 [Example 1, 1-Methyl-2-[4-(4-pyridin-4-yl-1H-pyrazol-3-yl)-phenoxymethyl]-1H-benzoimidazole] |
| 0.75 | FCn1c(COc2ccc(-c3nn(CC(F)(F)F)cc3-c3ccncc3)cc2)nc2ccccc21 [Example 17, 1-Fluoromethyl-2-{4-[4-pyridin-4-yl-1-(2.2.2-trifluoro-ethyl)-1-H-pyrazol-3-yl]-phenoxymethyl}-1H-benzoimidazole] |
| 0.39 | FC(F)(F)Cn1cc(-c2ccncc2)c(-c2ccc(OCc3cn4ccccc4n3)cc2)n1 [Example 15] |
| 8.82 | Oc1ccc(-n2ccnc2-c2ccncc2)cc1 [Preparation 37, 4-(2-(pyridin-4-yl)-1H-imidazol-1-yl)phenol] |
| 0.98 | Cn1cc(-c2ccncc2)c(-c2ccc(OCc3nc4ccccc4n3CF)cc2)n1 [Example 7, 1-Fluoromethyl-2-[4-(1-methyl-4-pyridin-4-yl-1H-pyrazol-3-yl)-phenoxymethyl]-1H-benzoimidazole] |
| 0.69 | Cn1cc(-c2ccncc2)c(-c2ccc(OCc3nc4ccccc4n3C3CC3)cc2)n1 [Example 9, 1-Cyclopropyl-2-[4-(1-methyl-4-pyridin-4-yl-1H-pyrazol-3-yl)-phenoxymethyl]-1-H-benzoimidazole] |
| 16.2 | Cn1cc(-c2ccncc2)c(-c2ccc(CCc3nc4ccccc4n3C)cc2)n1 [Example 27, 1-Methyl-2{2-[4-(1methyl-4-pyridin-4-yl-1H-pyrazol-3-yl)-phenyl]-ethyl}-1H-benzoimidazole] |
| 1.14 | Cn1cc(-c2ccncc2)c(-c2ccc(OCc3nc4ccccn4n3)cc2)n1 [Example 13, 2-[4-(1-Methyl-4-pyridin-4-yl-1H-pyrazol-3-yl)-phenoxymethyl]-[1,2,4]triazolo[1,5-a]-pyridine] |
| 1.38 | CCn1cc(-c2ccncc2)c(-c2ccc(OCc3nc4ccccc4n3C)cc2)n1 [Example 2, 2-[4-(1-Ethyl-4-pyridin-4-yl-1-H-pyrazol-3-yl)-phenoxylmethyl]-1-methyl-1-1H-benzoimidazole] |
| 10 | Cn1cc(-c2ccncc2)c(-c2ccc(OCc3nc4ccccc4n3CC(F)(F)F)cc2)n1 [Example 25, 2-[4-(1-Methyl-4-pyridin-4-yl-1H-pyrazol-3-yl)-phenoxymethyl]-1-(2,2,2trifluoro-ethyl)-1H-benzoimidazole] |
| 1.6 | COCCn1c(COc2ccc(-c3nn(C)cc3-c3ccncc3)cc2)nc2ccccc21 [Example 10, 1-(2-Methoxy-ethyl)-2[4-(1-methyl-4-pyridin-4-yl-1H-pyrazol-3-yl)-phenoxymethyl]-1H-benzoimidazole] |
| 46.3 | Cn1c(COc2ccc(-c3nncn3-c3ccncc3)cc2)nc2ccccc21 [Example 28, 1-Methyl-2[4-(4-pyridin-4-yl-4H-[1,2,4]triazol-3-yl)-phenoxymethyl]-1H-benzoimidazole] |
| 0.53 | Cn1cc(-c2ccncc2)c(-c2ccc(OCc3cn4ccccc4n3)cc2)n1 [Example 11, 2-[4-(1-Methyl-4-pyridin-4yl-1H-pyrazol-3-yl)-phenoxymethyl]-imidazo[1,2-a]pyridine] |
| 1.4 | Cc1c(COc2ccc(-c3nn(C)cc3-c3ccncc3)cc2)nc2ccccn12 [Example 24, 3-Methyl-2-[4-(1-methyl-4-pyridin-4-yl-1H-pyrazol-3-yl)-phenoxymethyl]-imidazo[1,2-a]pyridine] |
| 28.8 | Cn1c(COc2ccc(-n3ccnc3-c3ccncc3)cc2)nc2ccccc21 [Example 37, 2-((4-(2-(pyridin-4-yl)-1H-imidazol-1-yl)phenoxy)methyl)-1-methyl-1H-benzo[d]imidazole] |
| 0.56 | FC(F)(F)Cn1cc(-c2ccncc2)c(-c2ccc(OCc3nc4ccccn4n3)cc2)n1 [Example 14, 2-{4-[4-Pyridin-4-yl-1-(2,2,2-trifluoro-ethyl)-1-H-pyrazol-3-yl]-phenoxymethyl}-[1,2,4]triazolo[1,5-a]pyridine] |

| IC50 [nM] | SMILES |
| --- | --- |
| 0.21 | Cn1c(COc2ccc(-c3nn(CC(F)(F)F)cc3-c3ccncc3)cc2)nc2ccccc21 [Example 16, 1-Methyl-2-{4-[4-pyridin-4-yl-1-(2,2,2-trifluoro-ethyl)-1H-pyrazol-3yl]-phenoxymethyl}-1H-benzoimidazole] |
| 16.7 | Cn1cc(-c2ccncc2)c(-c2ccc(OCc3nc4cc(F)c(F)cc4n3C)cc2)n1 [Example 20, 5,6-Difluoro-1-methyl-2-[4-(1-methyl-4-pyridin-4-yl-1H-pyrazol-3-yl)-phenoxymethyl]-1H-benzoimidazole] |
| 2.6 | C[C@@H](O)Cn1cc(-c2ccncc2)c(-c2ccc(OCc3nc4ccccc4n3C)cc2)n1 [Example 3, 1-{3-[4(1-Methyl-1H-benzoimidazol-2-ylmethoxy)-phenyl]-4-pyridin-4-yl-pyrazol-1-yl)-propan-2-ol] |
| 1.48 | FC(F)(F)Cn1cc(-c2ccncc2)c(-c2ccc(OCc3nc4ccccc4s3)cc2)n1 [Example 22, 2-{4-[4-Pyridin-4-yl-1-(2,2 2-trifluoro-ethyl)-1H-pyrazol-3-yl]-phenoxymethyl}-benzothiazole] |
| 9.31 | Cn1cc(-c2ccncc2)c(-c2ccc(OCc3nc4ncccc4n3C)cc2)n1 [Example 18] |
| 8.91 | CC(C)n1c(COc2ccc(-c3nn(C)cc3-c3ccncc3)cc2)nc2ccccc21 [Example 8, 1-Isopropyl-2-[4-(1-methyl-4-pyridin-4-yl-1H-pyrazol-3-yl)-phenoxymethyl]-1H-benzoimidazole] |
| 133 | Cn1cc(-c2ccncc2)c(-c2ccc(OCc3nc4cnccc4n3C)cc2)n1 [Example 19, 1-Methyl-2-[4-(1-methyl-4-pyridin-4-yl-1H-pyrazol-3-yl)-phenoxymethyl]-1-H-imidazo[4,5-c]pyridine] |
| 3.05 | Cn1c(COc2ccc(-n3nccc3-c3ccncc3)cc2)nc2ccccc21 [Example 26, 1-Methyl-2-[4-(5-pyridin-4-yl-pyrazol-1-yl)-phenoxymethyl]-1H-benzoimidazole] |
| 0.56 | Cn1cc(-c2ccncc2)c(-c2ccc(OCc3nc4ccccc4n3C)cc2)n1 [Example 5, 1-Methyl-2-[4-(1-methyl-4-pyridin-4-yl-1H-pyrazol-3-yl)-phenoxymethyl]-1-H-benzoimidazole] |
| 12 | Cn1cc(-c2ccncc2)c(-c2ccc(OCc3cn4ccsc4n3)cc2)n1 [Example 32, 6-[4-(1-Methyl-4-pyridin-4-yl-1H-pyrazol-3-yl)-phenoxymethyl]-imidazo[2,1-b]thiazole] |
| 0.89 | Cn1cc(-c2ccncc2)c(-c2ccc(OCc3nc4ccccc4s3)cc2)n1 [Example 21, 2-[4-(1-Methyl-4-pyridin-4-yl-1H-pyrazol-3-yl)-phenoxymethyl]-benzothiazole] |
| 4.94 | Cn1c(COc2ccc(-c3oncc3-c3ccncc3)cc2)nc2ccccc21 [Example 4, 1-Methyl-2-[4-(4-pyridin-4-yl-isoxazol-5-yl)-phenoxymethyl]-1-H-benzoimidazole] |
| 0.53 | Cn1ncc(-c2ccncc2)c1-c1ccc(OCc2cn3ccccc3n2)cc1 [Example 12] |
| 3.09 | Cn1cc(-c2ccncc2)c(-c2ccc(OCc3nc4cccc5c4n3CCC5)cc2)n1 [Example 23, 2-[4-(1-Methyl-4-pyridin-4-yl-1H-pyrazol-3-yl)-phenoxymethyl]-5,6-dihydro-4H-imidazo[4,5,1-ij]quinoline] |
| 1.84 | Cn1ncc(-c2ccncc2)c1-c1ccc(OCc2nc3ccccc3n2C)cc1 [Example 6, 1-Methyl-2-[4-(2 methyl-4-pyridin-4-yl-2H-pryazol-3-yl)-phenoxymethyl]-1H-benzoimidazole] |
